“Also recorded” adds a separate entry of the source.
Each compound was assayed on Kyn levels in BxPC3 cells (kynurenine generated by IDO1) (assay: Cellular Kyn assay (automated Kyn screening assay)). Conditions: not given.
Assay type: cell-based

Row | SMILES | activity in cellular Kyn assay (in words) | fold lower activity than 14 (iDeg-2) in Kyn assay [fold]
1 | Cc1ccc(NC(=O)NC[C@]23CN(S(=O)(=O)c4ccc(C(C)(C)C)cc4)C[C@H]2C[C@H]2C[C@@H]3C2(C)C)cc1 [compound 7, 1-(((3aR,4R,6R,7aS)-2-((4-(tert-butyl)phenyl)sulfonyl)-5,5-dimethyloctahydro-3aH-4,6-methanoisoindol-3a-yl)methyl)-3-(p-tolyl) urea] | did not improve activity | –
2 | Cc1ccc(NC(=O)OC[C@]23CN(Cc4ccccc4)C[C@H]2C[C@H]2C[C@@H]3C2(C)C)cc1 [compound 9, ((3aS,4R,6R,7aS)-2-benzyl-5,5-dimethyloctahydro-3aH-4,6-methanoisoindol-3a-yl) methyl p-tolylcarbamate] | abolished activity; also recorded: loss of activity | –
3 | Cc1ccc(OC(=O)OC[C@]23CN(S(=O)(=O)c4ccc(C(C)(C)C)cc4)C[C@H]2C[C@H]2C[C@@H]3C2(C)C)cc1 [compound 13, ((3aS,4R,6R,7aS)-2-((4-(tert-butyl)phenyl)sulfonyl)-5,5-dimethyloctahydro-3aH-4,6-methanoisoindol-3a-yl)methyl p-tolyl carbonate] | did not improve activity; also recorded: inactive | –
4 | CC(C)(C)c1ccc(S(=O)(=O)N2CC3C[C@H]4C[C@H](C4(C)C)[C@]3(COC(=O)c3ccccc3)C2)cc1 (stereo partly drawn) [compound 15, ((3aR,4R,6R)-2-((4-(tert-butyl)phenyl)sulfonyl)-5,5-dimethyloctahydro-3aH-4,6-methanoisoindol-3a-yl)methyl benzoate] | did not improve activity; also recorded: inactive | –
5 | CC(C)(C)c1ccc(C(=O)N2C[C@H]3C[C@H]4C[C@H](C4(C)C)[C@@]3(COC(=O)Nc3ccc(I)cc3)C2)cc1 [compound 16, ((3aS,4R,6R,7aS)-2-(4-(tert-butyl)benzoyl)-5,5-dimethyloctahydro-3aH-4,6-methanoisoindol-3a-yl)methyl (4-iodophenyl)carbamate] | abolished activity | –
6 | CC(C)(C)c1ccc(S(=O)(=O)N2C[C@@H]3C[C@@H]4C[C@@H](C4(C)C)[C@]3(COC(=O)Nc3ccc(I)cc3)C2)cc1 [compound 20, ((3aR,4S,6S,7aR)-2-((4-(tert-butyl)phenyl)sulfonyl)-5,5-dimethyloctahydro-3aH-4,6-methanoisoindol-3a-yl)methyl (4-iodophenyl)carbamate] | – | 16
7 | CC(C)(C)c1ccc(S(=O)(=O)N2C[C@@H]3C[C@@H]4[C@H](C[C@]3(COC(=O)Nc3ccc(I)cc3)C2)C4(C)C)cc1 [compound 21, ((3aR,4aS,5aR,6aR)-2-((4-(tert-butyl)phenyl)sulfonyl)-5,5-dimethyloctahydrocyclopropa[f]isoindol-3a(1H)-yl)methyl (4-iodophenyl)carbamate] | inactive | –
8 | CC(C)[C@]12C[C@@H](OC(=O)Nc3ccc(I)cc3)[C@]3(CCN(S(=O)(=O)c4ccc(C(C)(C)C)cc4)C3)[C@H]1C2 [compound 23, (1S,2R,3R,5S)-1'-((4-(tert-butyl)phenyl)sulfonyl)-5-isopropylspiro[bicyclo[3.1.0]hexane-2,3'-pyrrolidin]-3-yl (4-iodophenyl) carbamate] | inactive | –
9 | CC(C)[C@]12CC(OC(=O)Nc3ccc(I)cc3)[C@]3(CCN(S(=O)(=O)c4ccc(C(C)(C)C)cc4)C3)[C@H]1C2 (stereo partly drawn) [compound 24, (1S,2R,5S)-1'-((4-(tert-butyl)phenyl)sulfonyl)-5-isopropylspiro[bicyclo[3.1.0]hexane-2,3'-pyrrolidin]-3-yl (4-iodophenyl)carbamate] | inactive | –
10 | CC(C)(C)c1ccc(S(=O)(=O)N2CC3CCCCC3(COC(=O)Nc3ccc(I)cc3)C2)cc1 (stereo not drawn) [compound 25, (2-((4-(tert-butyl)phenyl)sulfonyl)octahydro-3aH-isoindol-3a-yl) methyl (4-iodophenyl) carbamate] | inactive | –
11 | CC(C)(C)c1ccc(S(=O)(=O)N2CC3CCCC3(COC(=O)Nc3ccc(I)cc3)C2)cc1 (stereo not drawn) [compound 26, (2-((4-(tert-butyl)phenyl)sulfonyl)hexahydrocyclopenta [c]pyrrol-3a(1H)-yl) methyl (4-iodophenyl) carbamate] | inactive | –

Same assay, conditions: Homo sapiens, BXPC-3, 48 h, IFN-γ, L-Trp and compounds 48 h, mean ± SD, read-out: IC50 (Kyn assay), reduction of kynurenine levels

Row | SMILES | IC50 [µM]
12 | CCc1ccc(NC(=O)OC[C@]23CN(S(=O)(=O)c4ccc(C(C)(C)C)cc4)C[C@H]2C[C@H]2C[C@@H]3C2(C)C)cc1 [compound 28, ((3aS,4R,6R,7aS)-2-((4-(tert-butyl)phenyl)sulfonyl)-5,5-dimethyloctahydro-3aH-4,6-methanoisoindol-3a-yl)methyl (4-ethylphenyl)carbamate] | 2.9 ± 0.3
13 | CC(C)(C)c1ccc(S(=O)(=O)N2C[C@H]3C[C@H]4C[C@H](C4(C)C)[C@@]3(COC(=O)Nc3ccccc3)C2)cc1 [compound 32, ((3aS,4R,6R,7aS)-2-((4-(tert-butyl)phenyl)sulfonyl)-5,5-dimethyloctahydro-3aH-4,6-methanoisoindol-3a-yl)methyl phenylcarbamate] | 7 ± 1.6
14 | CC(C)(C)c1ccc(S(=O)(=O)N2C[C@H]3C[C@H]4C[C@H](C4(C)C)[C@@]3(COC(=O)Nc3ccc(F)cc3)C2)cc1 [compound 34, ((3aS,4R,6R,7aS)-2-((4-(tert-butyl)phenyl)sulfonyl)-5,5-dimethyloctahydro-3aH-4,6-methanoisoindol-3a-yl)methyl (4-fluorophenyl)carbamate] | > 10
15 | CC(C)(C)c1ccc(S(=O)(=O)N2C[C@H]3C[C@H]4C[C@H](C4(C)C)[C@@]3(COC(=O)Nc3ccc(Cl)cc3)C2)cc1 [compound 35, ((3aS,4R,6R,7aS)-2-((4-(tert-butyl)phenyl)sulfonyl)-5,5-dimethyloctahydro-3aH-4,6-methanoisoindol-3a-yl)methyl (4-chlorophenyl)carbamate] | 0.51 ± 0.08
16 | CC(C)(C)c1ccc(S(=O)(=O)N2C[C@H]3C[C@H]4C[C@H](C4(C)C)[C@@]3(COC(=O)Nc3ccc(Br)cc3)C2)cc1 [compound 36, ((3aS,4R,6R,7aS)-2-((4-(tert-butyl)phenyl)sulfonyl)-5,5-dimethyloctahydro-3aH-4,6-methanoisoindol-3a-yl)methyl (4-bromophenyl)carbamate] | 0.23 ± 0.05
17 | CC(C)(C)c1ccc(S(=O)(=O)N2C[C@H]3C[C@H]4C[C@H](C4(C)C)[C@@]3(COC(=O)Nc3ccccc3I)C2)cc1 [compound 37, ((3aS,4R,6R,7aS)-2-((4-(tert-butyl)phenyl)sulfonyl)-5,5-dimethyloctahydro-3aH-4,6-methanoisoindol-3a-yl)methyl (2-iodophenyl)carbamate] | 0.89 ± 0.18
18 | CC(C)(C)c1ccc(S(=O)(=O)N2C[C@H]3C[C@H]4C[C@H](C4(C)C)[C@@]3(COC(=O)Nc3ccccc3Br)C2)cc1 [compound 38, ((3aS,4R,6R,7aS)-2-((4-(tert-butyl)phenyl)sulfonyl)-5,5-dimethyloctahydro-3aH-4,6-methanoisoindol-3a-yl)methyl (2-bromophenyl)carbamate] | 0.39 ± 0.07

— paper PMC12811658, “Design, Synthesis, and Structural Evolution of Pseudo‐Natural Product IDO1 Inhibitors and Degraders” (Angewandte Chemie (International Ed. in English), 2025)
